Experimental data from the NIST ThermoML archive (doi:10.1016/j.jct.2015.08.033).

Assay: mn = molality of the nth substance listed, in mol/kg
Conditions: 100 kPa, Liquid; for speed of sound: Frequency=3 MHz, Sing-around technique in a fixed-path interferometer; for mass density: Vibrating tube method

O=S(=O)([O-])C(F)(F)F.O=S(=O)([O-])C(F)(F)F.[Sr+2] [strontium trifluoromethanesulfonate] + CN(C)C=O
Conditions | mass density, 298.15 K [kg/m3] | mass density, 303.15 K [kg/m3] | mass density, 308.15 K [kg/m3] | mass density, 313.15 K [kg/m3] | mass density, 318.15 K [kg/m3] | speed of sound, 298.15 K [m/s] | speed of sound, 303.15 K [m/s] | speed of sound, 308.15 K [m/s] | speed of sound, 313.15 K [m/s] | speed of sound, 318.15 K [m/s]
m1 = 0.01062 | 946.522 | 941.756 | 936.972 | 932.186 | 927.378 | 1457.2 | 1438 | 1418.7 | 1399.5 | 1380.3
m1 = 0.01763 | 948.231 | 943.466 | 938.685 | 933.888 | 929.08 | 1457.2 | 1438 | 1418.7 | 1399.6 | 1380.4
m1 = 0.02656 | 950.395 | 945.626 | 940.844 | 936.049 | 931.241 | 1457.1 | 1438 | 1418.7 | 1399.6 | 1380.5
m1 = 0.03847 | 953.244 | 948.482 | 943.704 | 938.91 | 934.105 | 1457 | 1437.9 | 1418.7 | 1399.6 | 1380.6
m1 = 0.04908 | 955.781 | 951.013 | 946.233 | 941.439 | 936.634 | 1456.8 | 1437.8 | 1418.6 | 1399.6 | 1380.6
m1 = 0.06765 | 960.189 | 955.42 | 950.641 | 945.845 | 941.04 | 1456.5 | 1437.6 | 1418.5 | 1399.5 | 1380.7
m1 = 0.08503 | 964.269 | 959.5 | 954.718 | 949.923 | 945.118 | 1456.2 | 1437.3 | 1418.3 | 1399.5 | 1380.6
m1 = 0.1067 | 969.35 | 964.567 | 959.781 | 954.985 | 950.18 | 1456.1 | 1437.1 | 1418.2 | 1399.3 | 1380.6
m1 = 0.1286 | 974.403 | 969.629 | 964.845 | 960.047 | 955.242 | 1455.4 | 1436.7 | 1417.9 | 1399.1 | 1380.5
m1 = 0.1612 | 981.851 | 977.074 | 972.285 | 967.485 | 962.676 | 1454.7 | 1436.1 | 1417.4 | 1398.8 | 1380.2
